Measurements from article PMC13308190, “Endothelial progenitor cell susceptibility to DNA damaging and DDR-modulating compounds determines endothelial differentiation accuracy” (Stem Cell Research & Therapy, 2026).

Columns and labels:
Assay type in all cases: cell-based, mouse
[1] = tested on: EC d4 (endothelial progenitor cells); experiment: Western blot protein expression (densitometry); conditions: EC d4 48 h; for CHK1 protein / RAD51 protein / gH2AX protein / p-CHK2 protein / p-KAP1 protein / p-RPA32 protein / p-p53 protein: Fig 5D
Method: (§1) Total protein cell extracts were obtained upon sonication in RIPA buffer (EpiShearTM Probe sonicator, Active Motif [La Hulpe, Belgium]). Protein concentrations were determined using the DC Protein Assay (BioRad [Munich, Germany]). Extracts were supplemented with Roti®-Load buffer (Carl Roth GmbH [Karlsruhe, Germany]) followed by heating (95 °C for 5 min). 20 µg of protein was separated by SDS-PAGE and transferred onto nitrocellulose membrane. After blocking (5% non-fat milk in TBS/0.1% Tween 20 or 5% BSA in TBS/0.1% Tween 20) (1 h, RT) membrane was incubated with primary antibodies (1:500–5000; overnight, 4 °C). After washing with TBS/0.1% Tween 20, peroxidase-conjugated secondary antibody (1:2000) was added (2 h, RT) and bands were visualized using ChemiDoxTM Touch imaging system (BioRad, Munich, Germany).

[2] = tested on: EC d6 (endothelial-like cells); experiment: Western blot protein expression (densitometry); conditions: EC d6 24 h; for CHK1 protein / RAD51 protein / gH2AX protein / p-CHK2 protein / p-KAP1 protein / p-RPA32 protein / p-p53 protein: Fig 5D
Method: as §1

[3] = tested on: EC d6 (endothelial-like cells); experiment: RT-qPCR mRNA expression
Method: Total RNA was purified using the RNeasy Mini Kit (Qiagen, Hilden, Germany). Reverse transcriptase (RT) reaction was performed with the HighCapacity cDNA Reverse Transcription Kit (Applied Biosystems, Darmstadt, Germany) using 900–2000 ng of RNA. Quantitative RT-qPCR analysis was performed using following conditions: (1) 95 °C–10 min; (2) 45 amplification cycles with 95 °C–15 s, 55 °C–15 s, and 72 °C–17 s; (3) 95 °C–1 min, 55 °C–1 min, 65 °C–5 s. If not stated otherwise, analyses were performed in technical triplicates using pooled samples from two independent experiments (each performed with biological duplicates) by use of a CFX96 cycler (BioRad) and the SensiMix SYBR Kit (Bioline, London, UK). The primers used for mRNA expression analyses are listed in Supplementary Table 1. To ensure the specificity of the amplification product, melting curves were recorded at the end of the run. mRNA expression levels were normalized to β-Actin and Gapdh. Relative mRNA expression in mESC or corresponding untreated controls was set to 1.0. Only changes in gene expression of ≤ 0.5- and ≥ 2-fold were considered as biologically relevant.

[4] = concentration 1 (Dox 1/B02 1/EST 1)
[5] = concentration 2 (Dox 2/B02 2/EST 2)
[6] = EC d6 + 0.05 µM 24 h + 24 h post incubation, Fig 7C

COc1cccc2c1C(=O)c1c(O)c3c(c(O)c1C2=O)C[C@@](O)(C(=O)CO)C[C@@H]3O[C@H]1C[C@H](N)[C@H](O)[C@H](C)O1 [Dox, doxorubicin]
H3ac protein ([1]; Fig 1D): 0.0 Fold of mESC
H4ac protein ([1]; Fig 1D): 0.0 Fold of mESC
aTubac (acetylated α-Tubulin) protein ([1]; Fig 1D): 0.3 Fold of mESC
CHK1 protein [1, 4]: 2.1 Fold of mESC
RAD51 protein [1, 4]: 0.1 Fold of mESC
gH2AX protein [1, 4]: 142.6 Fold of mESC
p-CHK2 protein [1, 4]: 0.7 Fold of mESC
p-KAP1 protein [1, 4]: 0.0 Fold of mESC
p-RPA32 protein [1, 4]: 0.5 Fold of mESC
p-p53 protein [1, 4]: 2.0 Fold of mESC
CHK1 protein [1, 5]: 0.2 Fold of mESC
RAD51 protein [1, 5]: < 0.1 Fold of mESC
gH2AX protein [1, 5]: 44.9 Fold of mESC
p-CHK2 protein [1, 5]: 0.2 Fold of mESC
p-KAP1 protein [1, 5]: 0.0 Fold of mESC
p-RPA32 protein [1, 5]: 0.1 Fold of mESC
p-p53 protein [1, 5]: 2.6 Fold of mESC
AMPKa protein ([1]; Fig 6E): 0.7 Fold of mESC
GSK3b protein ([1]; Fig 6E): 5.7 Fold of mESC
p-p70SK protein ([1]; Fig 6E): 0.5 Fold of mESC
H3ac protein ([2]; Fig 1D): 0.0 Fold of mESC
H4ac protein ([2]; Fig 1D): 0.0 Fold of mESC
aTubac (acetylated α-Tubulin) protein ([2]; Fig 1D): 0.6 Fold of mESC
CHK1 protein [2, 4]: 1.7 Fold of mESC
RAD51 protein [2, 4]: 1.7 Fold of mESC
gH2AX protein [2, 4]: 4.6 Fold of mESC
p-CHK2 protein [2, 4]: 0.8 Fold of mESC
p-KAP1 protein [2, 4]: 0.0 Fold of mESC
p-RPA32 protein [2, 4]: 0.2 Fold of mESC
p-p53 protein [2, 4]: 4.2 Fold of mESC
CHK1 protein [2, 5]: 1.0 Fold of mESC
RAD51 protein [2, 5]: 1.3 Fold of mESC
gH2AX protein [2, 5]: 31.8 Fold of mESC
p-CHK2 protein [2, 5]: 0.5 Fold of mESC
p-KAP1 protein [2, 5]: 0.0 Fold of mESC
p-RPA32 protein [2, 5]: 0.1 Fold of mESC
p-p53 protein [2, 5]: 3.1 Fold of mESC
AMPKa protein ([2]; Fig 6E): 0.6 Fold of mESC
GSK3b protein ([2]; Fig 6E): 4.3 Fold of mESC
p-p70SK protein ([2]; Fig 6E): 2.8 Fold of mESC
Cdkn1a mRNA [3, 6]: 4.38 Fold of untreated control
Cdkn2a mRNA [3, 6]: 1.77 Fold of untreated control
Glb1 mRNA [3, 6]: 1.49 Fold of untreated control
Il6 mRNA [3, 6]: 1.91 Fold of untreated control
Il8 mRNA [3, 6]: 1.31 Fold of untreated control
Tp53 mRNA [3, 6]: 1.15 Fold of untreated control
Atp7a mRNA ([3]; EC d6 + 0.05 µM 24 h, Fig 2D): 1.47 Fold of control
Atp7b mRNA ([3]; EC d6 + 0.05 µM 24 h, Fig 2D): 0.99 Fold of control
Ctr2 mRNA ([3]; EC d6 + 0.05 µM 24 h, Fig 2D): 1.13 Fold of control
Mdr1 mRNA ([3]; EC d6 + 0.05 µM 24 h, Fig 2D): 4.89 Fold of control
Mrp1 mRNA ([3]; EC d6 + 0.05 µM 24 h, Fig 2D): 1.23 Fold of control
Oct2 mRNA ([3]; EC d6 + 0.05 µM 24 h, Fig 2D): 0.25 Fold of control
Gpx1 mRNA ([3]; EC d6 + 0.05 µM 24 h, Fig 6C): 1.10 Fold of untreated control
Gpx4 mRNA ([3]; EC d6 + 0.05 µM 24 h, Fig 6C): 1.68 Fold of untreated control
Gstm1 mRNA ([3]; EC d6 + 0.05 µM 24 h, Fig 6C): 2.52 Fold of untreated control
Hmox1 mRNA ([3]; EC d6 + 0.05 µM 24 h, Fig 6C): 2.63 Fold of untreated control
Pgc1a mRNA ([3]; EC d6 + 0.05 µM 24 h, Fig 6C): 10.96 Fold of untreated control
Sod1 mRNA ([3]; EC d6 + 0.05 µM 24 h, Fig 6C): 2.60 Fold of untreated control
Sod2 mRNA ([3]; EC d6 + 0.05 µM 24 h, Fig 6C): 1.17 Fold of untreated control
Slc7a11 mRNA ([3]; EC d6 + 0.05 µM 24 h, Fig 6F): 0.82 Fold of untreated control
